Reference: patent US7501443B2, “Flavaxate derivatives as muscarinic receptor antagonists” (Ranbaxy Laboratories Limited, priority 2002, dated 2009)

Assays:
M2 muscarinic receptor = target: T1, M2 muscarinic receptor (Rattus norvegicus, UniProt P10980); assay: Radioligand binding assay, [3H]-N-methylscopolamine, rat heart membranes; details: [3H]-NMS binding, Ki by Cheng & Prusoff; for Ki: read-out: M2 pki
T1 construct: Submandibular glands and heart were isolated and placed in ice cold homogenising buffer; from tissue; host or cells: rat heart membrane homogenate
T1 sequence (P10980 1-466): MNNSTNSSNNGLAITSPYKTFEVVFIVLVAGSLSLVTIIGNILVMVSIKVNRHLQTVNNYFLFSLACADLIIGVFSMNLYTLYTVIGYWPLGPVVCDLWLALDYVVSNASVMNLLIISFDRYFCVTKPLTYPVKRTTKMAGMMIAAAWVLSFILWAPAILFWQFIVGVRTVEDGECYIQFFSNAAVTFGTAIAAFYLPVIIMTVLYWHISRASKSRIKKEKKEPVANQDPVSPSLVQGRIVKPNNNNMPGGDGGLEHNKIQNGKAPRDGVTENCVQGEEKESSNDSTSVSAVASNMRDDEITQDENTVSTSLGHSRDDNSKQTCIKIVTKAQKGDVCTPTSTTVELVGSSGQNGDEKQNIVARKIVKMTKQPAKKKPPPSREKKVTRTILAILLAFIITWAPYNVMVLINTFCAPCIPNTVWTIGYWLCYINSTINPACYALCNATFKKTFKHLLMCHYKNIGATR
Experimental: (§1) Radioligand Binding Assays: • The affinity of test compounds for M2 and M3 muscarinic receptor subtypes was determined by [^3H]-N-methylscopolamine binding studies using rat heart and submandibular gland respectively as described by Moriya et al., (Life Sci, 1999, 64(25):2351-2358) with minor modifications. Membrane preparation: Submandibular glands and heart were isolated and placed in ice cold homogenising buffer (HEPES 20 mM, 10 mM EDTA, pH 7.4) immediately after sacrifice. The tissues were homogenised in 10 volumes of homogenising buffer and the homogenate was filtered through two layers of wet gauze and filtrate was centrifuged at 500 g for 10 min. The supernatant was subsequently centrifuged at 40,000 g for 20 min. The pellet thus obtained was resuspended in same volume of assay buffer (HEPES 20 mM, EDTA 5 mM, pH 7.4) and were stored at −70° C. until the time of assay. Ligand binding assay: The compounds were dissolved and diluted in DMSO. The membrane homogenates (150-250 μg protein) were incubated in 250 μl of assay buffer (HEPES 20 mM, pH 7.4) at 24-25° C. for 3 h. Non-specific binding was determined in the presence of 1 μM atropine. The incubation was terminated by vacuum filtration over GF/B fiber filters(Wallac). The filters were then washed with ice cold 50 mM Tris HCl buffer (pH 7.4). The filter mats were dried and bound radioactivity retained on filters was counted. The IC50 & Kd were estimated by using the non-linear curve fitting program using G Pad Prism software. The value of inhibition constant Ki was calculated from competitive binding studies by using Cheng & Prusoff equation (Biochem Pharmacol, 1973, 22: 3099-3108), Ki=IC50/(1+L/Kd), where L is the concentration of [^3H]NMS used in the particular experiment. pki is—[log Ki].

M3 muscarinic receptor = target: T2, M3 muscarinic receptor (Rattus norvegicus, UniProt P08483); assay: Radioligand binding assay, [3H]-N-methylscopolamine, rat submandibular gland membranes; details: [3H]-NMS binding, Ki by Cheng & Prusoff; for Ki: read-out: M3 pki
T2 construct: Submandibular glands and heart were isolated and placed in ice cold homogenising buffer; from tissue; host or cells: rat submandibular gland membrane homogenate
T2 sequence (P08483 whole entry): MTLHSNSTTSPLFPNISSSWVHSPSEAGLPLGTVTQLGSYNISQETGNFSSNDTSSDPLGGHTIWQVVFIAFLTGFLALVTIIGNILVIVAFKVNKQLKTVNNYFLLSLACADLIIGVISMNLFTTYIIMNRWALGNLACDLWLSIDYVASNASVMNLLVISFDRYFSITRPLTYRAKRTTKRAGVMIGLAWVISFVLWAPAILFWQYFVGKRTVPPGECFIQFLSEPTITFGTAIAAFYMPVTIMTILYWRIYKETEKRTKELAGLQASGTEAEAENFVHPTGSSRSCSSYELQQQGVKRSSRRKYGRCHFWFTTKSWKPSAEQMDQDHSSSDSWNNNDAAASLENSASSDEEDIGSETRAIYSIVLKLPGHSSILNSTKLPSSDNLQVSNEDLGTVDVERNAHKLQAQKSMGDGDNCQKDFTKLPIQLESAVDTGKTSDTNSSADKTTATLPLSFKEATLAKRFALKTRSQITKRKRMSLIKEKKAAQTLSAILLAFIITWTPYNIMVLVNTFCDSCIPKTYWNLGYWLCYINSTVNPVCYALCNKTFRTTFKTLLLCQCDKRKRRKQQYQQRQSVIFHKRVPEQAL
Experimental: as §1

M2 pki (M2 muscarinic receptor) | M3 pki (M3 muscarinic receptor) | Ki (M2 muscarinic receptor) [µM] | Ki (M3 muscarinic receptor) [µM] | melting point [°C] | Molecule
<5.3 | 5.1 | – | – | – | Cc1c(-c2ccccc2)oc2c(C(=O)NCC3C4CN(Cc5ccccc5)CC34)cccc2c1=O (stereo not drawn) [Compound No. 3, (1α,5α,6α)-N-[3-benzyl-3-azabicyclo[3.1.0]hexyl-6-(aminomethyl)-yl]-3-methyl-4-oxo-2-phenyl-4H-1-benzopyran-8-carboxamide]
<6 | <6 | – | – | – | (1α,5α,6α)-N-[3-[4-methyl-3-pentenyl]-3-azabicylo[3.1.0]hexyl-6-(aminomethyl)-3-methyl-4-oxo-2-phenyl-4H-1-benzo-pyran-8-carboxamide [Compound No. 4]
– | – | > 10 | > 10 | – | Cc1c(-c2ccccc2)oc2c(C(=O)N[C@H]3[C@@H]4CN(Cc5ccc(C#N)cc5)C[C@@H]43)cccc2c1=O [Compound No. 2, (1α,5α,6α)-6N-[3-(4-cyanobenzyl)-3-azabicyclo[3.1.0]hexyl]-3-methyl-4-oxo-2-phenyl-4H-1-benzopyran-8-carboxamide]
– | – | > 10 | > 10 | 182 to 184 | Cc1c(-c2ccccc2)oc2c(C(=O)N[C@H]3[C@@H]4CN(Cc5ccccc5)C[C@@H]43)cccc2c1=O [Compound No. 1, (1α,5α,6α)-6N-[3-benzyl-3-azabicyclo[3.1.0]hexyl]-3methyl-4-oxo-2-phenyl-4H-1-benzopyran-8-carboxamide]
– | – | > 1 | > 1 | – | Cc1c(-c2ccccc2)oc2c(C(=O)NCC34CC3CN(Cc3ccccc3)C4)cccc2c1=O (centres unmarked) [Compound No. 5, N-[3-benzyl-3-azabicyclo[3.1.0]hexyl-1-(aminomethyl)-yl]-3-methyl-4-oxo-2-phenyl-4H-1-benzopyran-8-carboxamide]
